From PubChem BioAssay AID250 (DTP/NCI, 2004) come the findings set out here.

Molecules are shown by their SMILES. Values joined by “and” are separate entries in the source; they are usually repeats but may differ in a detail not shown here. Equal entries are not always repeated. Inconclusive results and toxic doses are left out.

The test system of this assay is BDF1 mice, L1210 leukemia sc, survival T/C. Kind of assay: NCI In Vivo Anticancer Drug Screen. Data for tumor model L1210 Leukemia (subcutaneous) in B6D2F1 (BDF1) mice. As to conditions: higher = longer survival. The method in brief:
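Mice carrying transplanted tumors received test compounds, and survival or tumor size was measured. Values are the treated-group measurement (T) divided by that of the vehicle-treated control group (C).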

Where [1] appears, read: endpoint: median survival time, dose: 39.0 mg/kg/injection, schedule: Q01DX Z (sc), vehicle: saline.
Where [2] appears, read: endpoint: median survival time, dose: 65.0 mg/kg/injection, schedule: Q01DX Z (sc), vehicle: saline.

For the molecule `O[C@H](CN1CC1)[C@@H](O)CN1CC1`, the T/C runs as follows: (endpoint: median survival time, dose: 0.14 mg/kg/injection, schedule: Q01DX Z (sc), vehicle: saline) 100 % of control; (endpoint: median survival time, dose: 0.22 mg/kg/injection, schedule: Q01DX Z (sc), vehicle: saline) 111 % of control; (endpoint: median survival time, dose: 0.23 mg/kg/injection, schedule: Q01DX Z (sc), vehicle: saline) 111 % of control; (endpoint: median survival time, dose: 0.6 mg/kg/injection, schedule: Q01DX Z (sc), vehicle: saline) 177 % of control; (endpoint: median survival time, dose: 0.65 mg/kg/injection, schedule: Q01DX Z (sc), vehicle: saline) 183 % of control; (endpoint: median survival time, dose: 1.0 mg/kg/injection, schedule: Q01DX Z (sc), vehicle: saline) 172 % of control. For the same molecule, the T/C is 155 % of control (endpoint: median survival time, dose: 1.08 mg/kg/injection, schedule: Q01DX Z (sc), vehicle: saline) and 122 % of control (endpoint: median survival time, dose: 2.8 mg/kg/injection, schedule: Q01DX Z (sc), vehicle: saline).

As to `CN=C(NC)c1ccc(NC(=O)Nc2ccc(NC(=O)Nc3ccc(C(=NC)NC)cc3)cc2)cc1`, the T/C was 100 % of control (endpoint: median survival time, dose: 3.0 mg/kg/injection, schedule: Q01DX Z (sc), vehicle: saline); 105 % of control (endpoint: median survival time, dose: 5.0 mg/kg/injection, schedule: Q01DX Z (sc), vehicle: saline); 100 % of control (endpoint: median survival time, dose: 8.4 mg/kg/injection, schedule: Q01DX Z (sc), vehicle: saline); 105 % of control (endpoint: median survival time, dose: 14.0 mg/kg/injection, schedule: Q01DX Z (sc), vehicle: saline); 115 % of control under setting [1]; 110 % of control under setting [2].

For the molecule `COc1cc(NS(C)(=O)=O)ccc1Nc1c2ccccc2nc2c(C)cccc12`, the T/C reads like this: (endpoint: mean survival time, dose: 2.5 mg/kg/injection, schedule: Q01DX009 (ip), vehicle: saline) 100 % of control and 114 % of control; (endpoint: mean survival time, dose: 5.0 mg/kg/injection, schedule: Q01DX009 (ip), vehicle: saline) 108 % of control and 103 % of control; (endpoint: mean survival time, dose: 10.0 mg/kg/injection, schedule: Q01DX009 (ip), vehicle: saline) 99 % of control.

For the molecule `C[n+]1c2cc(N)ccc2cc2ccc(N)cc21`, the T/C (endpoint: median survival time, dose: 23.0 mg/kg/injection, schedule: Q01DX Z (sc), vehicle: water) was 90 % of control and 100 % of control.

For the molecule `C[C@]12C=CC(=O)C=C1CC[C@@H]1[C@@H]2C(=O)C[C@@]2(C)[C@H]1CC[C@]2(O)C(=O)CO`, the T/C is, setting by setting: (endpoint: median survival time, dose: 25.0 mg/kg/injection, schedule: Q01DX009 (sc), vehicle: water) 100 % of control; (endpoint: median survival time, dose: 50.0 mg/kg/injection, schedule: Q01DX009 (sc), vehicle: water) 100 % of control; (endpoint: median survival time, dose: 100.0 mg/kg/injection, schedule: Q01DX009 (sc), vehicle: water) 100 % of control; (endpoint: median survival time, dose: 108.0 mg/kg/injection, schedule: Q01DX Z (sc), vehicle: methylcellulose (MC)) 109 % of control; (endpoint: median survival time, dose: 140.0 mg/kg/injection, schedule: Q01DX Z (oral), vehicle: water) 111 % of control; (endpoint: median survival time, dose: 140.0 mg/kg/injection, schedule: Q02DX Z (sc), vehicle: water) 122 % of control. For the same molecule, the T/C was 116 % of control (endpoint: median survival time, dose: 180.0 mg/kg/injection, schedule: Q01DX009 (sc), vehicle: water); 100 % of control (endpoint: median survival time, dose: 180.0 mg/kg/injection, schedule: Q01DX Z (sc), vehicle: methylcellulose (MC)); 107 % of control (endpoint: median survival time, dose: 180.0 mg/kg/injection, schedule: Q02DX009 (sc), vehicle: steriod suspending solution); 111 % of control (endpoint: median survival time, dose: 180.0 mg/kg/injection, schedule: Q02DX Z (sc), vehicle: steriod suspending solution); 100 % of control (endpoint: median survival time, dose: 200.0 mg/kg/injection, schedule: Q01DX009 (sc), vehicle: water); 111 % of control (endpoint: median survival time, dose: 233.0 mg/kg/injection, schedule: Q01DX Z (oral), vehicle: water). In addition, the T/C runs as follows: (endpoint: median survival time, dose: 300.0 mg/kg/injection, schedule: Q01DX Z (sc), vehicle: methylcellulose (MC)) 109 % of control and 112 % of control; (endpoint: median survival time, dose: 300.0 mg/kg/injection, schedule: Q02DX009 (sc), vehicle: steriod suspending solution) 104 % of control; (endpoint: median survival time, dose: 300.0 mg/kg/injection, schedule: Q02DX Z (sc), vehicle: steriod suspending solution) 105 % of control; (endpoint: median survival time, dose: 389.0 mg/kg/injection, schedule: Q01DX Z (oral), vehicle: water) 116 % of control; (endpoint: median survival time, dose: 389.0 mg/kg/injection, schedule: Q02DX Z (sc), vehicle: water) 155 % of control; (endpoint: median survival time, dose: 400.0 mg/kg/injection, schedule: Q01DX009 (sc), vehicle: water) 88 % of control and 100 % of control. The T/C reads like this: (endpoint: median survival time, dose: 500.0 mg/kg/injection, schedule: Q01DX Z (sc), vehicle: methylcellulose (MC)) 104 % of control and 112 % of control; (endpoint: median survival time, dose: 500.0 mg/kg/injection, schedule: Q02DX009 (sc), vehicle: steriod suspending solution) 101 % of control; (endpoint: median survival time, dose: 500.0 mg/kg/injection, schedule: Q02DX Z (sc), vehicle: steriod suspending solution) 100 % of control; (endpoint: median survival time, dose: 648.0 mg/kg/injection, schedule: Q01DX Z (oral), vehicle: water) 122 % of control; (endpoint: median survival time, dose: 800.0 mg/kg/injection, schedule: Q01DX009 (sc), vehicle: water) 94 % of control and 100 % of control; (endpoint: median survival time, dose: 833.0 mg/kg/injection, schedule: Q01DX Z (sc), vehicle: methylcellulose (MC)) 100 % of control and 112 % of control. Further, the T/C reads like this: (endpoint: median survival time, dose: 833.0 mg/kg/injection, schedule: Q02DX009 (sc), vehicle: steriod suspending solution) 103 % of control; (endpoint: median survival time, dose: 833.0 mg/kg/injection, schedule: Q02DX Z (sc), vehicle: steriod suspending solution) 105 % of control; (endpoint: median survival time, dose: 1080.0 mg/kg/injection, schedule: Q01DX Z (oral), vehicle: water) 111 % of control; (endpoint: median survival time, dose: 1080.0 mg/kg/injection, schedule: Q02DX Z (sc), vehicle: water) 155 % of control; (endpoint: median survival time, dose: 1388.0 mg/kg/injection, schedule: Q02DX009 (sc), vehicle: steriod suspending solution) 101 % of control; (endpoint: median survival time, dose: 1388.0 mg/kg/injection, schedule: Q02DX Z (sc), vehicle: steriod suspending solution) 100 % of control.

Take `COC(=O)Nc1nc2ccc(C(=O)c3cccs3)cc2[nH]1`: the T/C (endpoint: median survival time, dose: 50.0 mg/kg/injection, schedule: Q04DX003 (ip), vehicle: other) is 118 % of control; the T/C (endpoint: median survival time, dose: 70.0 mg/kg/injection, schedule: Q04DX003 (iv), vehicle: other) was 161 % of control; the T/C (endpoint: median survival time, dose: 100.0 mg/kg/injection, schedule: Q04DX003 (iv), vehicle: other) is 151 % of control.

Consider `CCOC1=C(N2CC2)C(=O)C(OCC)=C(N2CC2)C1=O`, for which the T/C runs as follows: (endpoint: median survival time, dose: 3.0 mg/kg/injection, schedule: Q01DX Z (sc), vehicle: carboxymethylcellulose (CMC)) 109 % of control; (endpoint: median survival time, dose: 14.0 mg/kg/injection, schedule: Q01DX Z (sc), vehicle: carboxymethylcellulose (CMC)) 122 % of control; (endpoint: median survival time, dose: 23.0 mg/kg/injection, schedule: Q01DX Z (sc), vehicle: carboxymethylcellulose (CMC)) 109 % of control.

For the molecule `Cn1cc(NC(=O)c2cc(NC(=O)CN=C(N)N)cn2C)cc1C(=O)NCCC(=N)N`, the T/C was 100 % of control (endpoint: median survival time, dose: 6.0 mg/kg/injection, schedule: Q01DX Z (sc), vehicle: methylcellulose (MC)); 100 % of control (endpoint: median survival time, dose: 12.0 mg/kg/injection, schedule: Q01DX Z (sc), vehicle: methylcellulose (MC)); 100 % of control (endpoint: median survival time, dose: 24.0 mg/kg/injection, schedule: Q01DX Z (sc), vehicle: methylcellulose (MC)).

In the case of `CN(C)c1nc(N(C)C)nc(N(C)C)n1`, the T/C is 100 % of control under setting [1]; 100 % of control under setting [2]; 100 % of control (endpoint: median survival time, dose: 108.0 mg/kg/injection, schedule: Q01DX Z (sc), vehicle: saline); 100 % of control (endpoint: median survival time, dose: 180.0 mg/kg/injection, schedule: Q01DX Z (sc), vehicle: saline); 95 % of control and 105 % of control (endpoint: median survival time, dose: 300.0 mg/kg/injection, schedule: Q01DX Z (sc), vehicle: saline); 95 % of control (endpoint: median survival time, dose: 500.0 mg/kg/injection, schedule: Q01DX Z (sc), vehicle: saline). For the same molecule, the T/C (endpoint: median survival time, dose: 833.0 mg/kg/injection, schedule: Q01DX Z (sc), vehicle: saline) was 110 % of control and the T/C (endpoint: median survival time, dose: 1388.0 mg/kg/injection, schedule: Q01DX Z (sc), vehicle: saline) was 100 % of control.

As for `CCCCCCCCCCCCCCCCNC(=S)N/N=C/c1ccccc1OC`, the T/C runs as follows: (endpoint: median survival time, dose: 78.0 mg/kg/injection, schedule: Q01DX Z (sc), vehicle: water) 100 % of control; (endpoint: median survival time, dose: 130.0 mg/kg/injection, schedule: Q01DX Z (sc), vehicle: water) 105 % of control; (endpoint: median survival time, dose: 216.0 mg/kg/injection, schedule: Q01DX Z (sc), vehicle: water) 111 % of control; (endpoint: median survival time, dose: 360.0 mg/kg/injection, schedule: Q01DX Z (sc), vehicle: water) 105 % of control; (endpoint: median survival time, dose: 600.0 mg/kg/injection, schedule: Q01DX Z (sc), vehicle: water) 100 % of control.
